{"source": "paper PMC8002477", "about": "“Bioactive Indole Diketopiperazine Alkaloids from the Marine Endophytic Fungus Aspergillus sp. YJ191021” (Marine Drugs, 2021)", "key": {"[1]": {"test_system": "Propionibacterium acnes (ATCC6919)", "experiment": "Antimicrobial assay against P. acnes (to exclude false anti-inflammatory activity)", "settings": "Cutibacterium acnes, ATCC6919, read-out: P. acnes MIC"}, "[2]": {"test_system": "THP-1 cells", "experiment": "MTT viability of THP-1 cells (safe concentration)", "settings": "concentration range of THP-1 cells viability over 80%, 36 h"}, "[3]": {"test_system": "THP-1 cells", "settings": "human, 36 h"}, "[4]": {"test_system": "Xanthomonas oryzae pv. oryzae", "experiment": "microbe, parasite or virus in culture", "format": "cell-based", "settings": "24 h, read-out: MIC, Xe (Xanthomonas oryzae pv. oryzae)"}, "[5]": {"test_system": "Xanthomonas oryzae pv. oryzicola", "experiment": "microbe, parasite or virus in culture", "format": "cell-based", "settings": "24 h, read-out: MIC, Xa (Xanthomonas oryzae pv. oryzicola)"}, "[6]": {"test_system": "Rhizoctonia solani", "experiment": "Antimicrobial MIC assay, Rhizoctonia solani", "format": "cell-based", "settings": "28 °C, 3-4 days, read-out: MIC, Rs (Rhizoctonia solani)"}, "[7]": {"test_system": "Fusarium oxysporum", "experiment": "Antimicrobial MIC assay, Fusarium oxysporum", "format": "cell-based", "settings": "28 °C, 3-4 days, read-out: MIC, Fo (Fusarium oxysporum)"}, "[8]": {"test_system": "Colletotrichum gloeosporioides", "experiment": "Antimicrobial MIC assay, Colletotrichum gloeosporioides", "format": "cell-based", "settings": "28 °C, 3-4 days, read-out: MIC, Cg (Colletotrichum gloeosporioides)"}, "[9]": {"test_system": "Aeromonas hydrophilia", "experiment": "microbe, parasite or virus in culture", "format": "cell-based", "settings": "read-out: MIC, Ah (Aeromonas hydrophilia)"}, "[10]": {"test_system": "Vibrio parahaemolyticus", "experiment": "microbe, parasite or virus in culture", "format": "cell-based", "settings": "read-out: MIC, Vp (Vibrio parahaemolyticus)"}, "[11]": {"test_system": "Edwardsiella tarda", "experiment": "microbe, parasite or virus in culture", "format": "cell-based", "settings": "read-out: MIC, Et (Edwardsiella tarda)"}, "[12]": {"test_system": "Vibrio anguillarum", "experiment": "microbe, parasite or virus in culture", "format": "cell-based", "settings": "read-out: MIC, Va (Vibrio anguillarum)"}}, "note": "Where two headings read alike, the source gives them in different places.", "data": [{"smiles": "CC1(C)C=Cc2c(ccc3c4c([nH]c23)C(C)(C)[C@@H]2C[C@]35CCCN3C(=O)[C@]2(NC5=O)[C@H]4O)O1", "note": "[Compound 12, notoamide R]", "values": [{"measurement": "MIC", "setting": "[1]", "value": "> 50", "unit": "µM"}, {"measurement": "THP-1 Cells SC (safe concentration)", "setting": "[2]", "value": "0 to 50", "unit": "µM"}]}, {"smiles": "CC1=C(/C=C/C(C)=C/C=C/C(C)=C/C(=O)O)C(C)(C)CCC1", "note": "[Tretinoin, reference compound]", "values": [{"measurement": "THP-1 Cells SC (safe concentration)", "setting": "[3]", "value": "0 to 50", "unit": "µM"}, {"measurement": "MIC", "setting": "[1]", "value": "> 50", "unit": "µM"}]}, {"smiles": "CC1(C)C=Cc2c(ccc3c2N(O)C(=O)C32C(O)C34NC(=O)C5(CCCN5C3=O)CC4C2(C)C)O1", "note": "(stereo not shown) [Compound 10, notoamide H]", "values": [{"measurement": "MIC", "setting": "[4]", "value": "> 100", "unit": "µg/mL"}, {"measurement": "MIC", "setting": "[5]", "value": "> 100", "unit": "µg/mL"}, {"measurement": "MIC", "setting": "[6]", "value": 25, "unit": "µg/mL"}, {"measurement": "MIC", "setting": "[7]", "value": "> 100", "unit": "µg/mL"}, {"measurement": "MIC", "setting": "[8]", "value": "> 100", "unit": "µg/mL"}, {"measurement": "MIC", "setting": "[1]", "value": "> 50", "unit": "µM"}, {"measurement": "THP-1 Cells SC (safe concentration)", "setting": "[2]", "value": "0 to 50", "unit": "µM"}]}, {"smiles": "CC1(C)C=Cc2c(ccc3c2[N+]([O-])=C2C3=CC34NC(=O)C5(CCCN5C3=O)CC4C2(C)C)O1", "note": "(stereo not shown) [Compound 1, Asperthrin A]", "values": [{"measurement": "MIC", "setting": "[9]", "value": 32, "unit": "µg/mL"}, {"measurement": "MIC", "setting": "[4]", "value": 50, "unit": "µg/mL"}, {"measurement": "MIC", "setting": "[10]", "value": 16, "unit": "µg/mL"}, {"measurement": "MIC", "setting": "[5]", "value": 12.5, "unit": "µg/mL"}, {"measurement": "MIC", "setting": "[7]", "value": "> 100", "unit": "µg/mL"}, {"measurement": "MIC", "setting": "[11]", "value": 16, "unit": "µg/mL"}, {"measurement": "MIC", "setting": "[8]", "value": "> 100", "unit": "µg/mL"}, {"measurement": "MIC", "setting": "[12]", "value": 8, "unit": "µg/mL"}, {"measurement": "MIC", "setting": "[1]", "value": "> 5", "unit": "µM"}, {"measurement": "THP-1 Cells SC (safe concentration)", "setting": "[2]", "value": "0 to 5", "unit": "µM"}]}, {"smiles": "CC(=O)N1CCN(c2ccc(OCC3COC(Cn4ccnc4)(c4ccc(Cl)cc4Cl)O3)cc2)CC1", "note": "(stereo not shown) [Ketoconazole, ketoconazole, reference compound]", "values": [{"measurement": "MIC", "setting": "[6]; agricultural pathogenic fungus", "value": 0.78, "unit": "µg/mL"}, {"measurement": "MIC", "setting": "[7]; agricultural pathogenic fungus", "value": 100, "unit": "µg/mL"}, {"measurement": "MIC", "setting": "[8]; agricultural pathogenic fungus", "value": 12.5, "unit": "µg/mL"}]}, {"smiles": "O=C(N[C@H](CO)[C@H](O)c1ccc([N+](=O)[O-])cc1)C(Cl)Cl", "note": "[Chloromycetin, reference compound]", "values": [{"measurement": "MIC", "setting": "[9]", "value": 2, "unit": "µg/mL"}, {"measurement": "MIC", "setting": "[4]", "value": 12.5, "unit": "µg/mL"}, {"measurement": "MIC", "setting": "[10]", "value": 2, "unit": "µg/mL"}, {"measurement": "MIC", "setting": "[5]", "value": 12.5, "unit": "µg/mL"}, {"measurement": "MIC", "setting": "[11]", "value": 2, "unit": "µg/mL"}, {"measurement": "MIC", "setting": "[12]", "value": 0.5, "unit": "µg/mL"}]}, {"smiles": "CC1(C)C=Cc2c(ccc3c2NC(=O)[C@@]32[C@H](O)[C@@]34NC(=O)[C@]5(CCCN5C3=O)C[C@H]4C2(C)C)O1", "note": "[Compound 9, sclerotiamide]", "values": [{"measurement": "MIC", "setting": "[4]", "value": "> 100", "unit": "µg/mL"}, {"measurement": "MIC", "setting": "[5]", "value": "> 100", "unit": "µg/mL"}, {"measurement": "MIC", "setting": "[6]", "value": 25, "unit": "µg/mL"}, {"measurement": "MIC", "setting": "[7]", "value": "> 100", "unit": "µg/mL"}, {"measurement": "MIC", "setting": "[8]", "value": "> 100", "unit": "µg/mL"}, {"measurement": "MIC", "setting": "[1]", "value": "> 50", "unit": "µM"}, {"measurement": "THP-1 Cells SC (safe concentration)", "setting": "[2]", "value": "0 to 50", "unit": "µM"}]}, {"smiles": "CC(=O)OC1C23NC(=O)C4(CCCN4C2=O)CC3C(C)(C)C12C(=O)Nc1c2ccc2c1C=CC(C)(C)O2", "note": "(stereo not shown) [Compound 5, Asperthrin E]", "values": [{"measurement": "MIC", "setting": "[4]", "value": "> 100", "unit": "µg/mL"}, {"measurement": "MIC", "setting": "[5]", "value": "> 100", "unit": "µg/mL"}, {"measurement": "MIC", "setting": "[6]; agricultural pathogenic fungus", "value": 25, "unit": "µg/mL"}, {"measurement": "MIC", "setting": "[7]; agricultural pathogenic fungus", "value": "> 100", "unit": "µg/mL"}, {"measurement": "MIC", "setting": "[8]; agricultural pathogenic fungus", "value": "> 100", "unit": "µg/mL"}, {"measurement": "MIC", "setting": "[1]", "value": "> 40", "unit": "µM"}, {"measurement": "THP-1 Cells SC (safe concentration)", "setting": "[2]", "value": "0 to 40", "unit": "µM"}]}, {"smiles": "CC1(C)C=Cc2c(ccc3c2NC24N5C(=O)C6(O)CCCN6C(=O)C5CC32OC(CO)C4(C)C)O1", "note": "(stereo not shown) [Compound 6, Asperthrin F]", "values": [{"measurement": "MIC", "setting": "[1]", "value": "> 50", "unit": "µM"}, {"measurement": "THP-1 Cells SC (safe concentration)", "setting": "[2]", "value": "0 to 50", "unit": "µM"}]}]}
